According to patent US8022206B2 (OSI Pharmaceuticals, LLC, priority 2008, dated 2011):

Key:
[1] = target: RON (human) (Homo sapiens, UniProt Q04912); test: RON (human) AlphaScreen kinase assay, Km of ATP; type: biochemical; details: AlphaScreen, Km of ATP; read-out: RON biochemical IC50
Outline: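 Reaction was started with enzyme and run 30 min at RT. PT66 donor/acceptor beads in an EDTA-containing Tris pH 7.5 buffer were then added, and the signal was read after 1 h.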

[2] = target: MET (human) (Homo sapiens, UniProt P08581); test: MET (human) AlphaScreen kinase assay, Km of ATP; type: biochemical; details: AlphaScreen, Km of ATP; read-out: Met biochemical IC50
Outline: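 Human MET at lot-optimised concentration in 50 mM Tris pH 7.4 buffer with 1 mM DTT, compound at 1% DMSO final; enzyme starts the reaction, 60 min at RT.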

RON (human), sequence (Q04912 25-1400): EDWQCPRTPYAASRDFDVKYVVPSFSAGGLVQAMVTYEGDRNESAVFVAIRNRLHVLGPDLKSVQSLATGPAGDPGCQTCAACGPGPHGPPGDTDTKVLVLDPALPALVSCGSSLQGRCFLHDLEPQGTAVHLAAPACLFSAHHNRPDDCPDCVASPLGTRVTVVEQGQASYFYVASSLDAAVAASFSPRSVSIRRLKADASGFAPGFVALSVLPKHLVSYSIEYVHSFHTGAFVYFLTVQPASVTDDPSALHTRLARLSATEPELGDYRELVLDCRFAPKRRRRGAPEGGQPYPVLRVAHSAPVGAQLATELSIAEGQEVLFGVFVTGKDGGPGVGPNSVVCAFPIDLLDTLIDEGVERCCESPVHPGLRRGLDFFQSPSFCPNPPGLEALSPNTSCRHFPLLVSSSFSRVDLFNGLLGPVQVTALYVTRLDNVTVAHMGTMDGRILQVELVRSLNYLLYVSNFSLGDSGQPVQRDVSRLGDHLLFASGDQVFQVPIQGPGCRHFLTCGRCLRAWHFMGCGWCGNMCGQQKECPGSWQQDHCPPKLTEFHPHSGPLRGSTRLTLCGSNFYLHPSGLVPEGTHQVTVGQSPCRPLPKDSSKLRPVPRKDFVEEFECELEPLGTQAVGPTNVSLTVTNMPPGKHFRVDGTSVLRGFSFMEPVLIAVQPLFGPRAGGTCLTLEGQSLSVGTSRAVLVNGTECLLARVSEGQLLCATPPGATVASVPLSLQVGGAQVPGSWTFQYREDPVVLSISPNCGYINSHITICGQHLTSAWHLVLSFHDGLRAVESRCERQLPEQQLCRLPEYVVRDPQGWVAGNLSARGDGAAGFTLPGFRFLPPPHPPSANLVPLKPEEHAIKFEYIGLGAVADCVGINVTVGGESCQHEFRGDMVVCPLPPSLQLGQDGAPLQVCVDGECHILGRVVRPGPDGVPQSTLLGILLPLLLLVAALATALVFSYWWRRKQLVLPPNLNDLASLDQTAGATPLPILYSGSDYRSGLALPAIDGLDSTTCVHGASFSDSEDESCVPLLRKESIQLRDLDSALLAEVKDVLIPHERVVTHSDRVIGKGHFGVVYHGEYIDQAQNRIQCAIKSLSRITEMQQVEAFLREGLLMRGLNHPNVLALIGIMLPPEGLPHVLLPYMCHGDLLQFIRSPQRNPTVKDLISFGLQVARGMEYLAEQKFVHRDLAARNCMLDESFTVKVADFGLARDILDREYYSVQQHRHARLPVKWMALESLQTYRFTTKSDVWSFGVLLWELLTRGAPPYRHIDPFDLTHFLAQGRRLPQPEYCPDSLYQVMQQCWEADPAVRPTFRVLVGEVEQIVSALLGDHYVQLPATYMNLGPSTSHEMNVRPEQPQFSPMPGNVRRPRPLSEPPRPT
MET (human), sequence (P08581 25-1390): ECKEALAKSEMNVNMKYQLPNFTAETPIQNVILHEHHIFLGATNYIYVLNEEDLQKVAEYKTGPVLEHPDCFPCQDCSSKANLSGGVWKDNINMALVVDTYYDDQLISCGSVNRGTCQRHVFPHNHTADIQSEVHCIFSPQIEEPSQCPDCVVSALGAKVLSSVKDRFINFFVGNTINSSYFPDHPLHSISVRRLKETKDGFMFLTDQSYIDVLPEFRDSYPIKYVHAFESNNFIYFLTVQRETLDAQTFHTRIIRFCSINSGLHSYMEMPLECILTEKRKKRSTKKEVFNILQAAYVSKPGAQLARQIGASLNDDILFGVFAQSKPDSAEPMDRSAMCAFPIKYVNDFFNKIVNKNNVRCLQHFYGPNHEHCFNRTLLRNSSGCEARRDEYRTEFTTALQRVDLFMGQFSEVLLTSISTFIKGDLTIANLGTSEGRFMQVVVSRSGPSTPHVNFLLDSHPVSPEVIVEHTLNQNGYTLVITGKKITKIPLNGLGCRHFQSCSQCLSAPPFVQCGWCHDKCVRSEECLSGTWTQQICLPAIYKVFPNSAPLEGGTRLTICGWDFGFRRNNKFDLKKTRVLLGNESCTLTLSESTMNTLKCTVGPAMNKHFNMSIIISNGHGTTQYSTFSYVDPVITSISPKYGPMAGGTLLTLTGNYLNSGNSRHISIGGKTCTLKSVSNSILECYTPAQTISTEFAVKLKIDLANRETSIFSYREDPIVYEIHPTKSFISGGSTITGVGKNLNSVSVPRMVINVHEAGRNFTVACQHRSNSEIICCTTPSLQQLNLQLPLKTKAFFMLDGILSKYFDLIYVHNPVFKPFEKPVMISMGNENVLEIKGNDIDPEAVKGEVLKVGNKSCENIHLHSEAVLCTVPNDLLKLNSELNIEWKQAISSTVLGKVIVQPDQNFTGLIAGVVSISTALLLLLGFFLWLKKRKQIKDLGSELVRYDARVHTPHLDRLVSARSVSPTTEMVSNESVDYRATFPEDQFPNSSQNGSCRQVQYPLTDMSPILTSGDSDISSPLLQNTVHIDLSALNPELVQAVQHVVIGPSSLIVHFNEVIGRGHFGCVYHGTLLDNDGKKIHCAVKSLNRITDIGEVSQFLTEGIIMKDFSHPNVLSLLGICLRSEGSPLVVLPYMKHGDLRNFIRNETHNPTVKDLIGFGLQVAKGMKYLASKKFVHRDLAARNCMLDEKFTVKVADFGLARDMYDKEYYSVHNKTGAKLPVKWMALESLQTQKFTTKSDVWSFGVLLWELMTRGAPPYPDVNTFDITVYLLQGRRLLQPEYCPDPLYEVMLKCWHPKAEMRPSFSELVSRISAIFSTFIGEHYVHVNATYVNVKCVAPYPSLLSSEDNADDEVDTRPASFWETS

| SMILES | IC50 [1] | IC50 [2] |
| --- | --- | --- |
| Cn1c(Cc2ccccc2)ncc(-c2ccc(COc3c(N)ncc4c(Br)coc34)c(F)c2)c1=O [Example 466, 5-[4-(6-Amino-3-bromofuro[3,2-c]pyridin-7-yloxymethyl)-3-fluorophenyl]-2-benzyl-3-methyl-3H-pyrimidin-4-one] | 0.5 to 5 µM | 0.5 to 5 µM |
| Cn1c(Cc2ccccc2)ncc(-c2ccc(COc3c(N)ncc4ccoc34)cc2)c1=O [Example 467, 5-[4-(6-Aminofuro[3,2-c]pyridin-7-yloxymethyl)phenyl]-2-benzyl-3-methyl-3H-pyrimidin-4-one] | 5 to 20 µM | > 20 µM |
| Cn1c(Cc2ccccc2)ncc(-c2ccc(COc3c(N)ncc4ccoc34)c(F)c2)c1=O [Example 468, 5-[4-(6-Aminofuro[3,2-c]pyridin-7-yloxymethyl)-3-fluorophenyl]-2-benzyl-3-methyl-3H-pyrimidin-4-one] | 5 to 20 µM | 5 to 20 µM |
| C[C@@H](Oc1c(N)ncc2c(-c3cnn(C4CCNCC4)c3)coc12)c1nnc2ccc(-c3cnn(C)c3)nn12 [Example 469, 7-{(1R)-1-[6-(1-methyl-1H-pyrazol-4-yl) [1,2,4]triazolo[4,3-b]pyridazin-3-yl]ethoxy}-3-[1-(piperidin-4-yl)-1H-pyrazol-4-yl]furo[3,2-c]pyridin-6-amine] | 5 to 20 µM | < 0.5 µM |
| C[C@@H](Oc1c(N)ncc2ccoc12)c1nnc2ccc(-c3cnn(C)c3)nn12 [Example 470, 7-{(1R)-1-[6-(1-methyl-1H-pyrazol-4-yl) [1,2,4]triazolo[4,3-b]pyridazin-3-yl]ethoxy}furo[3,2-c]pyridin-6-amine] | > 20 µM | 0.5 to 5 µM |
| C[C@@H](Oc1c(N)ncc2ccoc12)c1nnc2ccc(-c3ccccc3)nn12 [Example 471, 7-[(1R)-1-(6-phenyl[1,2,4]triazolo[4,3-b]pyridazin-3-yl)ethoxy]furo[3,2-c]pyridin-6-amine] | > 20 µM | 5 to 20 µM |
| Cn1cc(-c2ccc3nnc(COc4c(N)ncc5ccoc45)n3n2)cn1 [Example 472, 7-{[6-(1-methyl-1H-pyrazol-4-yl) [1,2,4]triazolo[4,3-b]pyridazin-3-yl]methoxy}furo[3,2-c]pyridin-6-amine] | 5 to 20 µM | 0.5 to 5 µM |
| Nc1ncc2ccoc2c1OCc1nnc2ccc(-c3ccccc3)nn12 [Example 473, 7-[(6-phenyl[1,2,4]triazolo[4,3-b]pyridazin-3-yl)methoxy]furo[3,2-c]pyridin-6-amine] | > 20 µM | 0.5 to 5 µM |
| C[C@H](Oc1c(N)ncc2ccoc12)c1nnc2ccc(-c3cnn(C)c3)nn12 [Example 474, 7-{(1S)-1-[6-(1-methyl-1H-pyrazol-4-yl) [1,2,4]triazolo[4,3-b]pyridazin-3-yl]ethoxy}furo[3,2-c]pyridin-6-amine] | > 20 µM | 0.5 to 5 µM |
| C[C@H](Oc1c(N)ncc2ccoc12)c1nnc2ccc(-c3ccccc3)nn12 [Example 475, 7-[(1S)-1-(6-phenyl[1,2,4]triazolo[4,3-b]pyridazin-3-yl)ethoxy]furo[3,2-c]pyridin-6-amine] | > 20 µM | 5 to 20 µM |
| C[C@@H](Oc1c(N)ncc2c(-c3cnn(C4CCNCC4)c3)coc12)c1nnc2ccc(-c3ccccc3)nn12 [Example 476, 7-[(1R)-1-(6-phenyl[1,2,4]triazolo[4,3-b]pyridazin-3-yl)ethoxy]-3-[1-(piperidin-4-yl)-1H-pyrazol-4-yl]furo[3,2-c]pyridin-6-amine] | 0.5 to 5 µM | < 0.5 µM |
| C[C@H](Oc1c(N)ncc2c(-c3cnn(C4CCNCC4)c3)coc12)c1nnc2ccc(-c3ccccc3)nn12 [Example 478, 7-[(1S)-1-(6-phenyl[1,2,4]triazolo[4,3-b]pyridazin-3-yl)ethoxy]-3-[1-(piperidin-4-yl)-1H-pyrazol-4-yl]furo[3,2-c]pyridin-6-amine] | > 20 µM | 0.5 to 5 µM |
| C[C@H](Oc1c(N)ncc2c(-c3cnn(C4CCNCC4)c3)coc12)c1nnc2ccc(-c3cnn(C)c3)nn12 [Example 479, 7-{(1S)-1-[6-(1-methyl-1H-pyrazol-4-yl) [1,2,4]triazolo[4,3-b]pyridazin-3-yl]ethoxy}-3-[1-(piperidin-4-yl)-1H-pyrazol-4-yl]furo[3,2-c]pyridin-6-amine] | 5 to 20 µM | 0.5 to 5 µM |
